Results from ChEMBL document CHEMBL5726293, “Substituted pyrimidine compounds” (2019).

Molecular target: 3',5'-cyclic-AMP phosphodiesterase 4B (Homo sapiens, UniProt Q07343)
Assay: cAMP HTRF Assay to Determine the Activity of hPDE4B1: The inhibiting effect of the compounds on the enzyme activity of human PDE4B1 was measured by the quantification of 5′-adenosine monophosphate (5′-AMP), which is formed from 3′,5′-cyclic adenosine monophosphate (cAMP). Human recombinant enzyme, expressed in Sf9 cells, and the HTRF (homogeneous time-resolved fluorescence) detection method were used in the assay.The test compound or water (control) was mixed with the human recombinant PDE4B1 enzyme (4.8 U) in a buffer consisting of 44.4 mM tris-HCl, 5.28 mM MgCl2, 2.64 mM DTT and 0.044% Tween 20 (pH 7.8). After adding the cAMP enzyme substrate (final concentration 40 nM), the mixture was incubated for 30 minutes at room temperature. Then a fluorescence acceptor (Dye2 marked with cAMP), a fluorescence donor (anti-cAMP antibody marked with a europium cryptate) and the non-specific phosphodiesterase inhibitor IBMX (3-isobutyl-1-methylxanthine; final concentration 1 mM) were added. After 60 min the fluorescence transfer, which correlates with the amount of remaining cAMP, was measured with a microplate reader (Rubystar, BMG) at λex=337 nm, λem=620 nm and λem=665 nm. The enzyme activity was calculated from the quotient formed from the measured signal at 665 nm and that at 620 nm. […]

3',5'-cyclic-AMP phosphodiesterase 4B, sequence (Q07343 whole entry): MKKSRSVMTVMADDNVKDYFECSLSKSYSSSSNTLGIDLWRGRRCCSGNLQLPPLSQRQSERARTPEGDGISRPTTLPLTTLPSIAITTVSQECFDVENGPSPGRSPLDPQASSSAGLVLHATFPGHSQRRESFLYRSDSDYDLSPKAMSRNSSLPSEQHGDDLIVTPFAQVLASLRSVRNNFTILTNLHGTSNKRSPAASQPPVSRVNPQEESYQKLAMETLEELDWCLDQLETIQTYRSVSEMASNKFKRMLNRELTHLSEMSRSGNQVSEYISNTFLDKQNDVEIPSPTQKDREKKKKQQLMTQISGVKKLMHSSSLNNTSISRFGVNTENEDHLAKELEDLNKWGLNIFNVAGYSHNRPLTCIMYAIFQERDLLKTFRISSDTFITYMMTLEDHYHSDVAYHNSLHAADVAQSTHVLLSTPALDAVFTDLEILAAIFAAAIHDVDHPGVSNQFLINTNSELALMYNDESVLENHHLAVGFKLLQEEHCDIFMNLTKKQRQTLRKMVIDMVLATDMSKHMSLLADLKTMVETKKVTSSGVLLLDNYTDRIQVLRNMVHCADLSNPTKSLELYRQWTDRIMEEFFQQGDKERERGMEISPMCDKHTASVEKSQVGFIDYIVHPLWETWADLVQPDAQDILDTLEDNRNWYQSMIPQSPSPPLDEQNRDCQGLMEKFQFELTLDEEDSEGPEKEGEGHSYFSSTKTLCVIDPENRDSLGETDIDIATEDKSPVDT

`CNCCN(C)C(=O)c1ccc2c(c1)N(c1ncc(-c3ccccc3F)cn1)CC21CC1` gave an IC50 of under 100 nM.

In the case of `CCc1csc(-c2cnc(N3CC4(CC4)c4ccc(C(=O)N(C)CCO)cc43)nc2)n1`, the IC50 is reported as under 100 nM.
